Measurements from ChEMBL document CHEMBL3871289, “Design, synthesis and antithrombotic evaluation of novel non-peptide thrombin inhibitors” (Bioorg Med Chem, 2017).
The source made the active and inactive calls. No cut-off for these calls is given here.

Target: Prothrombin (Homo sapiens, UniProt P00734)
Test: Inhibition of human thrombin assessed as reduction in release of free nitroaniline using tosyl-glycyl-prolyl-arginine-4-nitranilide acetate as substrate preincubated for 10 mins followed by substrate addition by spectrophotometer

SMILES | IC50 [µM]
N=C(N)c1ccc(CC2NCCn3c2nc2cc(C4(C(=O)N5CCCC5)CCCC4)ccc23)cc1 (stereo not drawn) | 0.0828
N=C(N)c1ccc(CC2NCCn3c2nc2cc(C4(C(=O)N5CCCCC5)CCC4)ccc23)cc1 (stereo not drawn) | 0.456
N=C(N)c1ccc(CC2NCCn3c2nc2cc(C4(C(=O)N5CCCC5)CC4)ccc23)cc1 (stereo not drawn) | 0.511
CC(C)(C(=O)N1CCCCC1)c1ccc2c(c1)nc1n2CCNC1Cc1ccc(C(=N)N)cc1 (stereo not drawn) | 1
CCOC(=O)C(C)(C)c1ccc2c(c1)nc1n2CCNC1Cc1ccc(C(=N)N)cc1 (stereo not drawn) | 1.44
N=C(N)c1ccc(CC2NCCn3c2nc2cc(C4(C(=O)N5CCCCC5)CCCC4)ccc23)cc1 (stereo not drawn) | 1.03
CC(C)(C(=O)N1CCCC1)c1ccc2c(c1)nc1n2CCNC1Cc1ccc(C(=N)N)cc1 (stereo not drawn) | 0.147
CCOC(=O)C1(c2ccc3c(c2)nc2n3CCNC2Cc2ccc(C(=N)N)cc2)CCCC1 (stereo not drawn) | 1.92
N=C(N)c1ccc(CC2NCCn3c2nc2cc(C4(C(=O)N5CCCC5)CCC4)ccc23)cc1 (stereo not drawn) | 0.446
N=C(N)c1ccc(CC2NCCn3c2nc2cc(C4(C(=O)N5CCCCC5)CC4)ccc23)cc1 (stereo not drawn) | 0.437

Tested on: Rattus norvegicus
Test: Anti-thrombotic activity in intragastrically dosed Sprague-Dawley rat venous thrombosis model assessed as reduction in thrombus weight administered once daily for 3 days measured 2 hrs post last dose
Assay type: functional, organism-based

SMILES | Activity
CC(C)(C)OC(=O)/N=C(\N)c1ccc(CC2NCCn3c2nc2cc(C4(C(=O)N5CCCC5)CCCC4)ccc23)cc1 (stereo not drawn) | Dose-dependent effect
Cc1nc(C)c(OC(=O)/N=C(\N)c2ccc(CC3NCCn4c3nc3cc(C5(C(=O)N6CCCC6)CCCC5)ccc34)cc2)nc1C (stereo not drawn) | Dose-dependent effect

Tested on: Rattus norvegicus
Test: Anti-thrombotic activity in Sprague-Dawley rat venous thrombosis model assessed as reduction in thrombus weight at 5 mg/kg, ig administered once daily for 3 days measured 2 hrs post last dose
Assay type: functional, organism-based

SMILES | Activity
CCCCCCOC(=O)NC(=N)c1ccc(NCc2nc3cc(C(=O)N(CCC(=O)OCC)c4ccccn4)ccc3n2C)cc1 | Active
